Calls of active or inactive are those of the source.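 Rule for the calls: active = AC50, the dose giving half-maximal effect, exceeds a fixed cutoff for a compound that rescues yeast growth under heat; inactive = the rest, inconclusive results apart.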
Each compound was assayed on S. cerevisiae Burl-1 ts mutant growth, BacTiter-Glo, 38.5C 24 h (assay: restored growth of temperature-sensitive Burl-1 yeast – whole organism, S. cerevisiae, Burl-1 ts mutant, luminescence, counter-screen for SUMOylation pathway inhibitor project, dose response (AID 463199)).

| SMILES | AC50 |
| --- | --- |
| CCC(C)(C(=O)NC1CCCC1)N(C(=O)c1ccccn1)c1ccc(C)cc1 (configuration not stated) | > 42 µM (inactive) |
| O=C(O)CN(c1ccccn1)S(=O)(=O)c1ccc(Cl)cc1 | > 42 µM (inactive) |
| CN1C(=O)C(=Cc2cn(CC(=O)N3CCCC3)c3ccccc23)C(=O)N(C)C1=O | > 42 µM (inactive) |
| Cc1cccn2c(=O)c3cc(C(=O)NCCc4ccccc4)sc3nc12 | > 42 µM (inactive) |
| COc1ccc(-c2csc(NC(=O)C3CSC4(C)CCC(=O)N34)n2)cc1 (configuration not stated) | > 42 µM (inactive) |
| COc1ccc(/C=C/C(=O)NC(=S)Nc2ccccn2)cc1 | > 42 µM (inactive) |
| COC(CNC(=O)c1cn(C)c2ccc(S(=O)(=O)N3CCOCC3)cc2c1=O)OC | > 42 µM (inactive) |
| CC(OC(=O)c1cc(S(=O)(=O)N2CCOCC2)ccc1F)C(=O)NCc1ccc2c(c1)OCO2 (configuration not stated) | > 42 µM (inactive) |
| COCC(=O)n1nc(-c2ccccc2)nc1NCc1ccc(N(C)C)cc1 | > 42 µM (inactive) |
| C=CCN1c2ccccc2[C@]23C[C@@H](C(=O)OC)N=C2NC(C(=O)OC)=C(C(=O)OC)[C@H]13 | > 42 µM (inactive) |
| NC(=O)CC(NC(=O)Cc1cccc2ccccc12)c1ccc(NCCCN2CCCC2=O)c([N+](=O)[O-])c1 (configuration not stated) | > 42 µM (inactive) |
| CC[n+]1c(/C=C(\C)SC)sc2ccccc21 | > 42 µM (inactive) |
| Cn1c(SCC(=O)Nc2nnc(-c3ccccc3)o2)nnc1C1CC1 | > 42 µM (inactive) |
| CCCCOc1ccc(C(=O)Nc2ccc(CN3CCOCC3)cc2)cc1 | > 42 µM (inactive) |
| Cc1c(Cl)cccc1NC(=O)Cn1c(CCC(=O)O)ccc1-c1ccccc1 | > 42 µM (inactive) |
| Cc1ccsc1C(=O)NCCc1ccc(S(N)(=O)=O)cc1 | > 42 µM (inactive) |
| CCn1nccc1C(=O)Nc1nccs1 | > 42 µM (inactive) |
| COc1ccc(-c2csc(Nc3cc(C)ccn3)n2)cc1C | > 42 µM (inactive) |
| CC(C)(C)NC(=O)NC(=O)CN1CCN(S(=O)(=O)c2ccc3c(c2)OCCO3)CC1 | > 21 µM (inactive) |
| COc1ccc(NC(=O)CC(C)C)c(OC)c1 | > 42 µM (inactive) |
| COCCn1c(SCC(=O)N2CCCC2)nnc1-c1ccoc1C | > 42 µM (inactive) |
| CC1CN(CCCOc2ccc([N+](=O)[O-])cc2)CC(C)O1 (configuration not stated) | > 42 µM (inactive) |
| Cc1ccc(CNC(=O)CCNS(=O)(=O)c2cccs2)cc1 | > 42 µM (inactive) |
| Cc1cc(Oc2cc(NN3CCCCC3)c([N+](=O)[O-])cc2[N+](=O)[O-])ccc1[N+](=O)[O-] | > 42 µM (inactive) |

| SMILES | AC50 |
| --- | --- |
| O=C(Nc1ccccc1N1CCN(c2ccccc2)CC1)c1cccc(F)c1 | > 42 µM (inactive) |
| Cc1cc(C)n(CCOC(=O)C2C(C=C(Cl)Cl)C2(C)C)n1 (configuration not stated) | > 42 µM (inactive) |
| N#CC1=C(SCC(N)=O)NC(=O)CC1c1ccccc1Cl (configuration not stated) | > 42 µM (inactive) |
| Cc1nc(-c2ccncc2)sc1C(=O)Nc1ccc(Br)cc1 | > 42 µM (inactive) |
| O=[N+]([O-])c1ccccc1CN1CC=C(c2ccc(F)cc2)CC1 | > 42 µM (inactive) |
| CC(=O)N1CC(=O)Nc2ccc(Cl)cc2C1c1ccccc1 (configuration not stated) | > 42 µM (inactive) |
| CC(=O)N1CCN(CC(O)COc2ccc(OCc3ccccc3)cc2)CC1 (configuration not stated) | > 42 µM (inactive) |
| O=C(CSc1ncnc2nc[nH]c12)Nc1ccccc1C(F)(F)F | > 42 µM (inactive) |
| CCOc1ccc(N(CC)S(=O)(=O)c2cccc3nsnc23)cc1 | > 42 µM (inactive) |
| Cc1cccc(N(C(=O)c2ccc(CN3CCOCC3)o2)C(C(=O)NC2CCCCC2)c2ccc(F)cc2)c1 (configuration not stated) | > 42 µM (inactive) |
| O=C(NCC(=O)N(c1ccccc1)C(C(=O)NCC1CCCO1)c1ccccc1)c1cccs1 (configuration not stated) | > 42 µM (inactive) |
| COc1ccc(/C=C2/SC(=O)N(NS(=O)(=O)c3ccccc3)C2=S)cc1OC | > 42 µM (inactive) |
| CN(NC(=O)c1ccccc1F)c1nc(C(F)(F)F)nc2ccccc12 | > 42 µM (inactive) |
| COc1ccc(-c2nnc(SCC(=O)N3CCCCC3)o2)cc1 | > 42 µM (inactive) |
| Cc1ccc(CN(C)C(=O)c2ccc3c(c2)NC(=O)CS3)o1 | > 42 µM (inactive) |
| CCOc1c(Cl)cc(CNCC(O)c2ccccc2)cc1OC (configuration not stated) | > 42 µM (inactive) |
| CCn1nc(CC(=O)Nc2ccc(-n3cnnn3)c(C)c2)c2ccccc2c1=O | > 42 µM (inactive) |
| COc1ccc(N(C(=O)c2ccco2)C(C(=O)NC2CCCCC2)c2ccccc2)cc1 (configuration not stated) | > 42 µM (inactive) |
| Cc1cc(NC(=O)CC2CCCC2)ccc1Br | > 42 µM (inactive) |
| CC(C)(C)c1ccc(-c2nc(C=O)c3ccccn23)cc1 | > 42 µM (inactive) |
| CC(NC(=O)c1ccc(Cl)cc1)C(=O)N1CCCCC1 (configuration not stated) | > 42 µM (inactive) |
| Cn1c(=O)c2c(ncn2CC(=O)N2CCCCCC2)n(C)c1=O | > 42 µM (inactive) |
| CCCn1c(SC(C)C(=O)NCC2CCCO2)nc2sc(CC)cc2c1=O (configuration not stated) | > 42 µM (inactive) |
| CC(C)(C)NC(=O)CN(C(=O)CCC(=O)Nc1nccs1)c1ccc2c(c1)OCCO2 | > 42 µM (inactive) |

| SMILES | AC50 |
| --- | --- |
| Cc1csc(=O)n1CC(=O)OCC(=O)Nc1cc([N+](=O)[O-])ccc1Cl | > 42 µM (inactive) |
| CS(=O)(=O)N(CC(=O)N1CCCC1)c1cccc(Cl)c1Cl | > 42 µM (inactive) |
| O=CNCCCc1nc2ccccc2n1CCc1ccccc1 | > 42 µM (inactive) |
| CC1(C)CNc2cc([N+](=O)[O-])ccc2S1 | > 42 µM (inactive) |
| CCc1ccccc1NC(=S)NNC(=O)c1ccccc1Cl | > 42 µM (inactive) |
| COc1ccc(N2C(=O)CC(NCc3cccs3)C2=O)cc1 (configuration not stated) | > 42 µM (inactive) |
| Cc1ccc2nc(/C(C#N)=C\c3cc(O)ccc3[N+](=O)[O-])[nH]c2c1 | > 42 µM (inactive) |
| CCN(CC)CCCN(Cc1cc2cc(OC)ccc2[nH]c1=O)C(=O)Nc1ccc(F)cc1 | > 42 µM (inactive) |
| Cc1cc(/C=N/NC(=O)c2ccsc2)c(C)n1-c1cnccn1 | > 42 µM (inactive) |
| Cc1cc(C)cc(N2C(=O)CC(Sc3ncn[nH]3)C2=O)c1 (configuration not stated) | > 42 µM (inactive) |
| COC(=O)N/N=C/c1ccc(-c2ccc(Cl)cc2Cl)o1 | > 42 µM (inactive) |
| COc1ccc(NC(=O)CCCc2ccccc2)cc1OC | 9.43 µM |
| COc1ccccc1NC(=S)N(Cc1ccccc1)Cc1cccs1 | > 42 µM (inactive) |
| Oc1cccc(/C=N/N2CCN(c3ccccn3)CC2)c1 | > 21 µM (inactive) |
| CC1CCCC(C)N1CCCNC(=O)c1csc2c1CCCCC2 (configuration not stated) | > 42 µM (inactive) |
| O=C(O)CSc1ncnc2sc(-c3ccccc3)cc12 | > 42 µM (inactive) |
| NC(=O)NC(=O)CSc1nc(C2CCCCC2)n(-c2ccccc2)n1 | > 42 µM (inactive) |
| O=S(=O)(c1ccc(C2CCCCC2)cc1)N1CCCC1 | > 42 µM (inactive) |
| CCN(CC)CCCn1c(=S)[nH]c2ccc(Cl)cc2c1=O | 38.6 µM |
| CN(C)S(=O)(=O)c1cccc(NC(=O)C(c2ccccc2)c2ccccc2)c1 | > 42 µM (inactive) |
| Cc1[nH]c2ccccc2c1/C=N/NC(=O)c1cccc(Br)c1 | > 42 µM (inactive) |
| COc1ccc2c(c1)[C@H]1[C@H](CO2)[C@H](c2ccccc2)[C@]2(C)C(=O)Nc3ccc(C)cc3C(=O)N12 | > 42 µM (inactive) |
| c1ccc(OCCCc2nc(-c3cccnc3)no2)cc1 | > 42 µM (inactive) |
| Cc1cc2c(C)ccc(C)c2nc1SCC(=O)c1cccs1 | > 42 µM (inactive) |

From PubChem BioAssay AID463199 (Broad Institute, 2010)
